Data taken from USRE47193E1, “Selectively substituted quinoline compounds” (EISAI R&D MANAGEMENT CO., LTD., priority 2013, dated 2019).
Like-named read-outs stand apart in the source and are kept apart here.

Key:
[1] = biological target: T1, human TLR8 (Homo sapiens, UniProt Q9NR97); test: HEK-293 human TLR8 NF-kappaB luciferase reporter assay (CL097); type: cell-based
T1 construct: host or cells: HEK-293, then stably transfected with pNiFty2(NF-kappaB)-luciferase reporter
T1 sequence (Q9NR97 27-1041): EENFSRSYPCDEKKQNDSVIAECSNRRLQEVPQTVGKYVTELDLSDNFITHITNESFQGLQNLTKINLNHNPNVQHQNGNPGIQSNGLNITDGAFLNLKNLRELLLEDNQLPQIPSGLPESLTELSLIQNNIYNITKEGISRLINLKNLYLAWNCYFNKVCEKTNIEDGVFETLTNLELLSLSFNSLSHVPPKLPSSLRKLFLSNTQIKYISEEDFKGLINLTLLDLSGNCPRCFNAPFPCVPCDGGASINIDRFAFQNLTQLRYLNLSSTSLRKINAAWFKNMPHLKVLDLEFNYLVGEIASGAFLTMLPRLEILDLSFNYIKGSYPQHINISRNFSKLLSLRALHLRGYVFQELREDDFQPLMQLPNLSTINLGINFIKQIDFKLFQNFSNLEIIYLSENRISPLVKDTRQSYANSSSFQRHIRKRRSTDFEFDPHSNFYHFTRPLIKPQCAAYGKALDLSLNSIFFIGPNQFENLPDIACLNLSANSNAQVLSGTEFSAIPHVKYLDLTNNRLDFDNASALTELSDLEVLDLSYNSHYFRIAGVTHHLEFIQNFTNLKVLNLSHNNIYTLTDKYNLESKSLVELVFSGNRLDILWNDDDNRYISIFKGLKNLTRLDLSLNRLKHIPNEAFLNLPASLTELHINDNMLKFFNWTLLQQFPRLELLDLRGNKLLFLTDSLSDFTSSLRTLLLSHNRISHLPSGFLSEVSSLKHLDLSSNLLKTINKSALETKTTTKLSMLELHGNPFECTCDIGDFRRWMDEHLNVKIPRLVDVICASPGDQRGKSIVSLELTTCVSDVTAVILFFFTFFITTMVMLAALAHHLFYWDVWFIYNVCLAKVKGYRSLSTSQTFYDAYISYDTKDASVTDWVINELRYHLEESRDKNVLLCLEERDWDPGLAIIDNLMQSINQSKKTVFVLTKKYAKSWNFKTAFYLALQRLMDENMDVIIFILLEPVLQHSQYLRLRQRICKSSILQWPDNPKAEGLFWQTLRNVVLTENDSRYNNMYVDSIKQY
Experimental: Effects on mouse TLR7 were also compared. Cells were stimulated overnight with TLR7/8 agonist CL097 at pre-determined ED70-80: 3 ug/ml for HEK-hTLR7, 1.5 ug/ml for HEK-mTLR7 and 12 ug/ml for HEK-hTLR8, before reading luminescence intensity. Three tests were performed and IC50 value was determined using Graphpad Prism 6 nonlinear regression curve fit.
HEK-293 cells (ATCC) were engineered to stably express a NF-kappaB transcription factor inducible E-selectin (ELAM-1) luciferase reporter derived from the plasmid pGL3 (Promega) containing base pairs −2241 bp to −254 bp from the promoter of the human E-selectin gene (Accession No. NM_000450). These cells were then subsequently engineered to stably and individually express human TLR4, TLR7 or TLR9 full-length ORF cDNAs. Human TLR4 cDNA (Accession No. NM_138554) was cloned into pcDNA 3.0 expression vector (Invitrogen). TLR4 transfected cells were also engineered to express human MD-2 co-receptor [MD-2 cDNA (Accession No. NM_015364) was cloned into the pEF-BOS vector] and were supplemented with 10 nM soluble CD14 (R&D Systems) in the media to optimize LPS responsiveness. Human TLR9 cDNA (Accession No. NM_017442) was cloned into the pBluescript II KS vector (Agilent). Human TLR7 cDNA (Accession No. NM_016562) was obtained from OriGene. HEK-293 cells stably expressing human TLR8 (Accession No. NM_138636) or mouse TLR7 (Accession No. NM_133211) were purchased from InvivoGen and were then stably transfected with pNiFty2(NF-kappaB)-luciferase reporter plasmid (InvivoGen). Each cell type was plated in Dulbecco's modified Eagle's medium (DMEM) containing 10% fetal bovine serum (FBS) at a density of 2.22×10^5 cells/ml into a 384-well plate and incubated for 2 days at 37° C., 5% CO2. Varying concentrations of antagonist compounds were then added. Cells were then incubated for another 30 minutes before adding the appropriate TLR agonist as follows (final concentrations indicated): lipopolysaccharide (LPS; Sigma) at 10 ng/ml for TLR4, CL097 (InvivoGen) at 3 ug/ml for human TLR7 and TLR8 and mouse TLR7, and CvG-2006-2A [sequence: […] (SEQ ID NO: 1) with phosphorothioate backbone, synthesized by Sigma-Aldrich] at 0.6 uM for TLR9.

[2] = test system: Human TLR7/8; test: Human PBMC cell-based assay, TLR7/8 stimulus (RNA-Ig), cytokine ELISA; conditions: primary human PBMC assay, TLR7/8 potency; ligand not given; read-out: Human PBMCs IC50
Method in brief: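 The agonist was RNA-Ig, a U1 snRNA-derived 26-mer RNA (2.5 μM) complexed with RNA-cross-reacting anti-ssDNA mAb (1:25 or 1 ug/ml), added after 30 min compound pre-incubation (0.1% DMSO). Density-gradient PBMC from healthy donors, 2×10^5/well, were stimulated 20 h at 37 °C; cytokines quantified by ELISA.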

[3] = biological target: T2, mouse TLR7 (Mus musculus, UniProt P58681); test: Short-term in vivo (STIV) assay: oral dosing, R848 s.c., plasma IL-6; set-up: female BALB/c mice (Jackson Labs, Bar Harbor, Me.) were dosed by oral gavage; tissue Jackson Labs; host or cells: living female BALB/c mice; plasma IL-6 after s.c. R848; conditions: 100 mg/kg
T2 sequence (P58681 27-1050): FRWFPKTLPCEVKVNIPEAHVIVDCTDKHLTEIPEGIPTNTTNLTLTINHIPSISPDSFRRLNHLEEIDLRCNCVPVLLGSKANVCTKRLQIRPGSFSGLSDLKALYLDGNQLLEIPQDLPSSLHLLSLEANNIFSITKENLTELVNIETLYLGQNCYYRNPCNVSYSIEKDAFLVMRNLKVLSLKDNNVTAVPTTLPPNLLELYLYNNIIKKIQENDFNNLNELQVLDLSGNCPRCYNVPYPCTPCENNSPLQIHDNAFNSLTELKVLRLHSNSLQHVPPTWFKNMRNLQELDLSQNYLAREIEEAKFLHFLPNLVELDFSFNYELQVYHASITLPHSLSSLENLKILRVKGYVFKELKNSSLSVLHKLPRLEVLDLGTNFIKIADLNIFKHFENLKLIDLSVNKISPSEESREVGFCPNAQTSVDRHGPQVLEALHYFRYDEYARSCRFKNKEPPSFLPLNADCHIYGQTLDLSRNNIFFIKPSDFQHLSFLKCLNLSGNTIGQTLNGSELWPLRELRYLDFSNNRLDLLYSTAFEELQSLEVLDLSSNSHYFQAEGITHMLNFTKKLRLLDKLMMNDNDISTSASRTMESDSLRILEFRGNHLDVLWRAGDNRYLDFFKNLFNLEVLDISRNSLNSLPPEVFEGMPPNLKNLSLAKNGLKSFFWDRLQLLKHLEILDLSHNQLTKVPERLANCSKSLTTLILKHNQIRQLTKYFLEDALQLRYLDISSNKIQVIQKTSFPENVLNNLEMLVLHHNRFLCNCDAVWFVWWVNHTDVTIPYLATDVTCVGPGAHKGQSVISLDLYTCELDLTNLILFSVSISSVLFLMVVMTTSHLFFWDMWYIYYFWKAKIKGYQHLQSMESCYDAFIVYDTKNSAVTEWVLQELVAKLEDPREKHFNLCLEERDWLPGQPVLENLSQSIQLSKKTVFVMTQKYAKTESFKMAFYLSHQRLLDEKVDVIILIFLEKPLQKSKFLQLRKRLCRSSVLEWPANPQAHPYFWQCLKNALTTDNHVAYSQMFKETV
Method in brief: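 Female BALB/c mice (6–8 weeks) dosed orally with compound in 0.5% aqueous methyl-cellulose at 33, 100 or 300 mg/kg; at various times afterwards given 15 ug R848 s.c. to stimulate TLR7. Plasma IL-6 measured by ELISA to gauge potency and duration of action.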

[4] = HEK-293 assay format, read-out: HEK/hTLR8 IC50

IC50 [1, 4]	SMILES	IC50 [2]	also measured
5 nM	CCCCC(O)C1CN(c2ccc(C#N)c3ncccc23)CC(C)O1 (single isomer, unassigned) [ER-886530]		
30 nM	CC1CN(c2ccc(C#N)c3ncccc23)CC(C(O)C2CCCCC2)O1 (single isomer, unassigned) [ER-886532]		
14 nM	CC1CN(c2ccc(C#N)c3ncccc23)CC(C(O)C2CCCCC2)O1 (single isomer, unassigned) [ER-886533]		
80 nM	C[C@@H]1CN(c2ccc(C#N)c3ncccc23)C[C@H](CNC(=O)C(C)(C)C)O1 [ER-879713]		
10 nM	C[C@H]1CN(c2ccc(C#N)c3ncccc23)C[C@H](C)O1 [ER-880191]		
11 nM	COc1ccc(N2C[C@@H](C)O[C@@H](C)C2)c2cccnc12 [ER-885113]		
25 nM	C[C@@H]1CN(c2ccc(C#N)c3ncccc23)C[C@H](CF)O1 [ER-885621]		
37 nM	CC(C)COC[C@H]1CN(c2ccc(C#N)c3ncccc23)C[C@@H](C)O1 [ER-885892]		
147 nM	C[C@@H]1CN(c2ccc(C#N)c3ncccc23)C[C@H](COCC2CCCCC2)O1 [ER-885930]		
182 nM	C[C@@H]1CN(c2ccc(C#N)c3ncccc23)C[C@H](CN2CCCC2)O1 [ER-886507]		
	C[C@@H]1CN(c2ccc(C#N)c3ncccc23)C[C@H](CNCc2ccccc2)O1 [ER-886509]		IC50 ([1]; HEK/hTLR8 IC50, HEK-293 assay format): 119 nM
5 nM	C[C@@H]1CN(c2ccc(C#N)c3ncccc23)C[C@H](COc2ccccc2)O1 [ER-886514]		
193 nM	C[C@@H]1CN(c2ccc(C#N)c3ncccc23)C[C@H](CNC2CCCCCC2)O1 [ER-887444]		
0.5 nM	CC1CCCCC1NC[C@H]1CN(c2ccc(C#N)c3ncccc23)C[C@@H](C)O1 (stereo partly shown) [ER-887539]		
11 nM	C[C@@H]1CN(c2ccc(C#N)c3ncccc23)C[C@H](CN2CCC[C@@H](N)C2)O1 [ER-887928]		
	C[C@@H]1CN(c2ccc(C#N)c3ncccc23)C[C@H](C(=O)N(C)[C@@H]2CCCNC2)O1 [ER-899616]	54 nM	% Suppression vs. Vehicle ([3]; 6 h): 79%; % Suppression vs. Vehicle ([3]; 13 h): 27%
	C[C@@H]1CN(c2ccc(C#N)c3ncccc23)C[C@H](C(=O)N(C)[C@H]2CCCNC2)O1 [ER-899619]	33 nM	% Suppression vs. Vehicle ([3]; 6 h): 79%; % Suppression vs. Vehicle ([3]; 13 h): 35%
	CC1CN(c2ccc(C#N)c3ncccc23)CC(C(=O)NC2CCCN(C)C2)O1 (stereo not shown) [ER-899688]	11 nM	% Suppression vs. Vehicle ([3]; 6 h): 10%; % Suppression vs. Vehicle ([3]; 13 h): 96%
	C[C@@H]1CN(c2ccc(C#N)c3ncccc23)C[C@H](C(=O)N[C@@H]2CNC[C@@H]2F)O1.Cl [ER-899745]	4 nM	% Suppression vs. Vehicle ([3]; 6 h): 100%; % Suppression vs. Vehicle ([3]; 13 h): 5%

SMILES	IC50 [1, 4]	IC50 [2]	also measured
CC1CN(c2ccc(C#N)c3ncccc23)CC(CN2CCCC2C(C)C)O1 (mixture of isomers) [ER-886816]	107 nM		
CC1CN(c2ccc(C#N)c3ncccc23)CC(CNC2CCCC2O)O1 (mixture of isomers) [ER-887528]	135 nM	56 nM	
C=CC(O)[C@H]1CN(c2ccc(C#N)c3ncccc23)C[C@@H](C)O1 (single isomer, unassigned) [ER-886431]	31 nM		
CC1CN(c2ccc(C#N)c3ncccc23)CC(C(O)CCc2ccccc2)O1 (single isomer, unassigned) [ER-886567]	5 nM	22 nM	
CC1CN(c2ccc(C#N)c3ncccc23)CC(C(O)CCc2ccccc2)O1 (single isomer, unassigned) [ER-886568]	5 nM	79 nM	
N#Cc1ccc(N2CCOC(CCl)C2)c2cccnc12 (stereo not shown) [ER-879484]	18 nM		
COC[C@H]1CN(c2ccc(C#N)c3ncccc23)C[C@@H](C)O1 [ER-885612]	55 nM	614 nM	
C[C@@H]1CN(c2ccc(C#N)c3ncccc23)C[C@H](COCc2ccccc2)O1 [ER-885618, 5-((2R,6R)-2-((benzyloxy)methyl)-6-methylmorpholino)quinoline-8-carbonitrile]	5 nM	23 nM	
CCN(CC)C[C@H]1CN(c2ccc(C#N)c3ncccc23)C[C@@H](C)O1 [ER-886508]	186 nM		
C[C@@H]1CN(c2ccc(C#N)c3ncccc23)C[C@H](C(=O)CCc2ccccc2)O1 [ER-886629]	5 nM		
C[C@@H]1CN(c2ccc(C#N)c3ncccc23)C[C@H](CN2CC[C@@H](c3ccccc3)C2)O1 [ER-886818]	81 nM		
